# Laboratory results published in US20110229521A1, “NUTRITIONAL SUPPORT OF THE IMMUNE SYSTEM DURING ANTI-CANCER TREATMENT” (priority 2008, published 2011).
# Tests used:
# [1] = system: Methylcholanthrene (MCA) induced sarcoma cell line expressing the exogenous antigen for ovalbumin (OVA); assay: Tumor growth evaluation by caliper after chemotherapy (Example 1); assay type: in vivo, C57BL/6 (H-2b) mice
# Experimental: Cancer Cell Lines. Methylcholanthrene (MCA) induced sarcoma cell line expressing the exogenous antigen for ovalbumin (OVA) were grown in DMEM or RPMI 1640 supplemented with 2 mM L-glutamine, 10 mM HEPES, 20 μM 2-mercaptoethanol, 150 U/mL streptomycin, 200 U/mL penicillin, and 10% heat-inactivated FBS. 1×10^6 tumor cells were injected in the flank of the mice 6 days prior to the chemotherapy.
# Growth of tumors was monitored every 2 d by using calipers, and tumor volume was calculated by using the formula length×width×width×0.52 mm^3.
# [2] = Body weight, haematological evaluation and flow cytometry of tumor-bearing mice after chemotherapy (Example 1)
# Experimental: Mice. Inbred eight-week-old C57BL/6 (H-2b) mice were used in the experiments. Mice were inoculated subcutaneously (s.c.) on the left flank with 1×10 ^6 tumor cells, and tumor growth was monitored every 2 days by caliper measurement. 6 days after the tumor inoculation the animals were treated either with oxaliplatin or doxorubicin. Tumor growth was monitored every two days after the chemotherapeutic treatment and they were sacrificed after two weeks of tumor implantation. Some experiments were carried out until 28 days post-chemo to better assess tumor growth.
# Body weight was assessed every two days until sacrifice.
# Blood samples were obtained at day 2 and 4 after the chemo-treatment, at day 10 and at sacrifice (14 or 28 days). An autopsy was performed and tumoral mass was assessed.
# Haematological evaluation. Red blood cell enumeration, hemoglobin and hematocrit were measured at 2, 4, 10, 14 and 28 days.
# White blood cell counts and differential leukocyte formulation were examined at the same time points. Blood samples were used in addition to determine immune cell populations.
# Flow cytometric analysis. Cell subset analysis of the CD11c^+, CD11b^+Gr-1^+ and CD11b^+Gr-1^−, CD14^+, CD19^+, CD16^+, CD56^+, CD3^+, CD8^+, CD4^+ was performed. The battery of antibodies used permitted the evaluation of: B and T cell subsets NK, NKT cells, macrophages, dendritic cells, granulocytes.
# [3] = Body weight, haematological evaluation and flow cytometry of tumor-bearing mice on supplemented diets with chemotherapy (Example 2); assay type: in vivo, C57BL/6 (H-2b) mice; conditions: for Global lymphocyte population: following chemotherapy
# Experimental: (§1) Mice. […] The animals were distributed into 7 different group diets. There was a control group that received the diet AIN 93 for adult rodents (maintenance). […] Control animals without chemotherapeutic treatment were run in parallel for all tested diets. Body weight was assessed every two days. Blood samples were obtained at day 2, 4 and 10 after the chemo-treatment and at sacrifice (14 or 28 days). An autopsy was performed and tumor mass was assessed.
# Haematological evaluation.
# Flow cytometric analysis.
# MCA-OVA tumor cells = assay: Tumor growth evaluation by caliper, supplemented diets with or without chemotherapy (Example 2); assay type: in vivo, C57BL/6 (H-2b) mice
# Experimental: as §1
# Cancer Cell Lines. Methylcholanthrene (MCA) induced sarcoma cell line expressing the exogenous antigen ovalbumin (OVA) was grown in DMEM or RPMI 1640 supplemented with 2 mM L-glutamine, 10 mM HEPES, 20 μM 2-mercaptoethanol, 150 U/mL streptomycin, 200 U/mL penicillin, and 10% heat-inactivated FBS. 1×10 ^6 tumor cells were injected in the flank of the mice 6 days prior to the chemotherapy.
# Tumor growth evaluation. Growth of tumors was monitored every 2 d by using calipers, and tumor volume was calculated by using the formula length×width×width×0.52 mm^3.
# γδ T cells = conditions: acid hydrolysed, diluted in media; peripheral blood mononuclear cells; cited from earlier work
smiles,measurement,setting,value
O=C1[O][Pt]2([NH][C@@H]3CCCC[C@H]3[NH]2)[O]C1=O [oxaliplatin],tumor growth rate versus control (no chemotherapy),"[1]; treatment group oxa-10, FIG. 2, divergence at day 14",slower rate than the control
same,tumor growth rate versus control (no chemotherapy),"[1]; treatment group oxa-12.5, FIG. 2, divergence at day 14",slower rate than the control
same,white blood cell counts,[2],higher that the baseline counts
"NC(=O)NCCC[C@H](N)C(=O)O [citrulline, L-citrulline]",Global lymphocyte population,[3]; supplemented diet,less depressed following chemotherapy
"N=C(N)NCCC[C@H](N)C(=O)O [arginine, L-arginine]",loss of CD3+ cells,"[3]; after chemotherapy, supplemented diet",partially modulated
same,immune cell population / concentration,[3]; second phase (tumor-induced toxicity),increase immune cell concentration
same,fall of erythrocytes after chemotherapy,"[3]; supplemented diet, days 6 to 10 post-chemo, FIG. 3",prevented the marked fall of erythrocytes
same,tumor size,"MCA-OVA tumor cells; combination with the chemotherapy treatment versus chemotherapy alone, FIG. 4",further reduced the tumor size
same,progression of the implanted tumor,MCA-OVA tumor cells; supplemented diet compared to other groups,delayed progression
CCNC(=O)CC[C@H](N)C(=O)O [L-theanine],expansion of γδ T cells,γδ T cells,15 fold
NC(=O)CC[C@H](N)C(=O)O [glutamine],Global lymphocyte population,[3]; supplemented diet,less depressed following chemotherapy
